Tests used:
[1] = tested on: Human immunodeficiency virus 1; assay: Antiviral activity against wild type HIV-1 IIIB infected in human MT4 cells assessed as protection against virus-induced cytopathic effect incubated for 5 days by MTT assay; type: functional, organism-based; conditions: Human immunodeficiency virus 1, IIIB, MT4, 120 h
[2] = Selectivity index, ratio of CC50 for cytotoxicity against human MT4 cells assessed as reduction in cell viability to EC50 for antiviral activity against human MT4 cells assessed as protection against virus-induced cytopathic effect; type: toxicity, cell-based; conditions: read-out: Ratio CC50/EC50
[3] = Cytotoxicity against human MT4 cells assessed as reduction in cell viability incubated for 5 days by MTT assay; type: toxicity, cell-based; conditions: time 5 day
[4] = target: Human immunodeficiency virus type 1 reverse transcriptase (Human immunodeficiency virus 1, UniProt Q72547); assay: Inhibition of wild type HIV-1 reverse transcriptase assessed as reduction in biotin-dUTP incorporation in cDNA preincubated with compound for 1 hr in presence of biotin-labeled dNTPs by ELISA
[5] = tested on: Human immunodeficiency virus 1; assay: Antiviral activity against NNRTI-resistant HIV-1 harboring E138K mutant infected in human MT4 cells assessed as protection against virus-induced cytopathic effect incubated for 5 days by MTT assay; type: functional, organism-based; conditions: Human immunodeficiency virus 1, MT4, 120 h
[6] = tested on: Human immunodeficiency virus 1; assay: Antiviral activity against NNRTI-resistant HIV-1 harboring L100I mutant infected in human MT4 cells assessed as protection against virus-induced cytopathic effect incubated for 5 days by MTT assay; type: functional, organism-based; conditions: Human immunodeficiency virus 1, MT4, 120 h
[7] = tested on: Human immunodeficiency virus 1; assay: Antiviral activity against NNRTI-resistant HIV-1 harboring K103N mutant infected in human MT4 cells assessed as protection against virus-induced cytopathic effect incubated for 5 days by MTT assay; type: functional, organism-based; conditions: Human immunodeficiency virus 1, MT4, 120 h
[8] = tested on: Human immunodeficiency virus 1; assay: Antiviral activity against NNRTI-resistant HIV-1 harboring Y188L mutant infected in human MT4 cells assessed as protection against virus-induced cytopathic effect incubated for 5 days by MTT assay; type: functional, organism-based; conditions: Human immunodeficiency virus 1, MT4, 120 h
[9] = tested on: Human immunodeficiency virus 1; assay: Antiviral activity against NNRTI-resistant HIV-1 harboring Y181C mutant infected in human MT4 cells assessed as protection against virus-induced cytopathic effect incubated for 5 days by MTT assay; type: functional, organism-based; conditions: Human immunodeficiency virus 1, MT4, 120 h
[10] = tested on: Human immunodeficiency virus 1; assay: Antiviral activity against NNRTI-resistant HIV-1 harboring F227L/V106A double mutant infected in human MT4 cells assessed as protection against virus-induced cytopathic effect incubated for 5 days by MTT assay; type: functional, organism-based; conditions: Human immunodeficiency virus 1, MT4, 120 h
[11] = tested on: Human immunodeficiency virus 1; assay: Antiviral activity against NNRTI-resistant HIV-1 harboring RES056 mutant infected in human MT4 cells assessed as protection against virus-induced cytopathic effect incubated for 5 days by MTT assay; type: functional, organism-based; conditions: Human immunodeficiency virus 1, MT4, 120 h
[12] = tested on: Human immunodeficiency virus 1; assay: Potency index, ratio of efavirenz EC50 to test compound EC50 for antiviral activity against NNRTI-resistant HIV-1 harboring K103N mutant infected in human MT4 cells assessed as protection against virus-induced cytopathic effect incubated for 5 days by MTT assay; type: functional; conditions: time 5 day
[13] = tested on: Human immunodeficiency virus 1; assay: Potency index, ratio of efavirenz EC50 to test compound EC50 for antiviral activity against NNRTI-resistant HIV-1 harboring F227L/V106A double mutant infected in human MT4 cells assessed as protection against virus-induced cytopathic effect incubated for 5 days by MTT assay; type: functional; conditions: time 5 day
[14] = tested on: Human immunodeficiency virus 1; assay: Potency index, ratio of efavirenz EC50 to test compound EC50 for antiviral activity against NNRTI-resistant HIV-1 harboring L100I mutant infected in human MT4 cells assessed as protection against virus-induced cytopathic effect incubated for 5 days by MTT assay; type: functional; conditions: time 5 day

Row | SMILES | EC50 [1] | selectivity ratio [2] | CC50 at 120 h [3] | IC50 [4] | EC50 [5] | EC50 [6] | EC50 [7] | EC50 [8] | EC50 [9] | EC50 [10] | EC50 [11] | Ratio EC50 [12] | Ratio EC50 [13] | Ratio EC50 [14]
1 | Cc1cc(/C=C/C#N)cc(C)c1Oc1nc(Nc2ccc(N3CCN(S(C)(=O)=O)CC3)c(F)c2)ncc1-c1cnc(F)nc1 | 6.3 nM | 95 | 600 nM | – | – | – | – | – | – | – | – | – | – | –
2 | Cc1cc(/C=C/C#N)cc(C)c1Oc1nc(Nc2ccc(N3CCN(S(C)(=O)=O)CC3)c(C#N)c2)ncc1-c1cnc(F)nc1 | 39 nM | 784 | 30900 nM | – | – | – | – | – | – | – | – | – | – | –
3 | Cc1cc(/C=C/C#N)cc(C)c1Oc1nc(Nc2ccc(N3CCN(S(C)(=O)=O)CC3)c(F)c2)ncc1-c1cnc(N)nc1 | 7.3 nM | 918 | 6700 nM | – | – | – | – | – | – | – | – | – | – | –
4 | Cc1cc(/C=C/C#N)cc(C)c1Oc1nc(Nc2ccc(N3CCS(=O)(=O)CC3)c(C#N)c2)ncc1-c1ccc(N)nc1 | 41 nM | 16 | 700 nM | – | – | – | – | – | – | – | – | – | – | –
5 | Cc1cc(/C=C/C#N)cc(C)c1Oc1nc(Nc2ccc(N3CCS(=O)(=O)CC3)c(F)c2)ncc1-c1cnc(F)nc1 | 13 nM | 2270 | 28800 nM | 350 nM | 55 nM | 51 nM | 13 nM | 6500 nM | 120 nM | 210 nM | 1590 nM | – | – | –
6 | Cc1cc(/C=C/C#N)cc(C)c1Oc1nc(Nc2ccc(N3CCS(=O)(=O)CC3)c(C#N)c2)ncc1-c1cnc(N)nc1 | 31 nM | 22 | 800 nM | – | – | – | – | – | – | – | – | – | – | –
7 | Cc1cc(/C=C/C#N)cc(C)c1Oc1nc(Nc2ccc(N3CCN(S(C)(=O)=O)CC3)c(C#N)c2)ncc1-c1ccc(N)nc1 | 6.4 nM | 25300 | 161000 nM | 410 nM | 30 nM | 9.4 nM | 6.2 nM | 250 nM | 34 nM | 30 nM | 210 nM | 12.6 | 7 | 3.7
8 | Cc1cc(/C=C/C#N)cc(C)c1Oc1nc(Nc2ccc(N3CCN(S(C)(=O)=O)CC3)c(F)c2)ncc1-c1ccc(N)nc1 | 5.8 nM | 13000 | 75600 nM | 270 nM | 29.8 nM | 43 nM | 6.6 nM | 700 nM | 180 nM | 180 nM | 100 nM | – | – | –
9 | Cc1cc(/C=C/C#N)cc(C)c1Oc1nc(Nc2ccc(N3CCN(S(C)(=O)=O)CC3)c(C#N)c2)ncc1-c1ccc(F)nc1 | 26 nM | > 7620 | > 200000 nM | – | – | – | – | – | – | – | – | – | – | –
10 | Cc1cc(/C=C/C#N)cc(C)c1Oc1nc(Nc2ccc(N3CCS(=O)(=O)CC3)c(C#N)c2)ncc1-c1ccc(F)nc1 | 27 nM | > 7830 | > 210000 nM | – | – | – | – | – | – | – | – | – | – | –
11 | Cc1cc(/C=C/C#N)cc(C)c1Oc1nc(Nc2ccc(N3CCN(S(C)(=O)=O)CC3)c(C#N)c2)ncc1-c1cncnc1 | 8.5 nM | > 24200 | > 206000 nM | 290 nM | 49 nM | 39 nM | 13 nM | 890 nM | 99 nM | 190 nM | 770 nM | – | – | –
12 | Cc1cc(/C=C/C#N)cc(C)c1Oc1nc(Nc2ccc(N3CCS(=O)(=O)CC3)c(F)c2)ncc1-c1cccnc1 | 17 nM | 4850 | 82800 nM | – | 64 nM | 130 nM | 12 nM | 1560 nM | 380 nM | 420 nM | 4520 nM | – | – | –
13 | Cc1cc(/C=C/C#N)cc(C)c1Oc1nc(Nc2ccc(N3CCS(=O)(=O)CC3)c(F)c2)ncc1-c1cncnc1 | 5.4 nM | > 40500 | > 219000 nM | 200 nM | 53 nM | 90 nM | 6.7 nM | 1270 nM | 170 nM | 280 nM | 1350 nM | – | – | –
14 | Cc1cc(/C=C/C#N)cc(C)c1Oc1nc(Nc2ccc(N3CCS(=O)(=O)CC3)c(F)c2)ncc1-c1cnc(N)nc1 | 6 nM | 156 | 1000 nM | – | – | – | – | – | – | – | – | – | – | –
15 | Cc1cc(/C=C/C#N)cc(C)c1Oc1nc(Nc2ccc(N3CCN(S(C)(=O)=O)CC3)c(F)c2)ncc1-c1ccc(F)nc1 | 17 nM | > 11600 | > 202000 nM | – | 51 nM | 140 nM | 34 nM | 4540 nM | 460 nM | 350 nM | 8280 nM | – | – | –
16 | Cc1cc(/C=C/C#N)cc(C)c1Oc1nc(Nc2ccc(N3CCN(S(C)(=O)=O)CC3)c(C#N)c2)ncc1-c1cccnc1 | 7.9 nM | 22700 | 179000 nM | 330 nM | 37 nM | 48 nM | 11 nM | 550 nM | 150 nM | 230 nM | 800 nM | – | – | –
17 | Cc1cc(/C=C/C#N)cc(C)c1Oc1nc(Nc2ccc(N3CCN(S(C)(=O)=O)CC3)c(F)c2)ncc1-c1cccnc1 | 19 nM | > 2140 | > 41700 nM | 630 nM | 57 nM | 230 nM | 24 nM | 2030 nM | 400 nM | 640 nM | 3740 nM | – | – | –
18 | Cc1cc(/C=C/C#N)cc(C)c1Oc1nc(Nc2ccc(N3CCN(S(C)(=O)=O)CC3)c(F)c2)ncc1-c1cncnc1 | 16 nM | > 12900 | > 208000 nM | 490 nM | 96 nM | 110 nM | 28 nM | 2200 nM | 200 nM | 313 nM | 1160 nM | – | – | –
19 | Cc1cc(/C=C/C#N)cc(C)c1Oc1nc(Nc2ccc(N3CCS(=O)(=O)CC3)c(C#N)c2)ncc1-c1cnc(F)nc1 | 220 nM | 110 | 23900 nM | – | – | – | – | – | – | – | – | – | – | –
20 | Cc1cc(/C=C/C#N)cc(C)c1Oc1nc(Nc2ccc(N3CCS(=O)(=O)CC3)c(F)c2)ncc1-c1ccc(N)nc1 | 3.5 nM | 239 | 800 nM | – | – | – | – | – | – | – | – | – | – | –
21 | Cc1cc(/C=C/C#N)cc(C)c1Oc1nc(Nc2ccc(N3CCN(S(C)(=O)=O)CC3)c(C#N)c2)ncc1-c1cnc(N)nc1 | 7.2 nM | 5390 | 38600 nM | – | 39 nM | 27 nM | 6.7 nM | > 38600 nM | 42 nM | 96 nM | 280 nM | – | – | –
22 | Cc1cc(/C=C/C#N)cc(C)c1Oc1nc(Nc2ccc(N3CCS(=O)(=O)CC3)c(C#N)c2)ncc1-c1cncnc1 | 9.1 nM | 258 | 2400 nM | – | – | – | – | – | – | – | – | – | – | –
23 | Cc1cc(/C=C/C#N)cc(C)c1Oc1nc(Nc2ccc(N3CCS(=O)(=O)CC3)c(C#N)c2)ncc1-c1cccnc1 | 16 nM | 1340 | 21800 nM | 490 nM | 50 nM | 54 nM | 9.9 nM | 720 nM | 140 nM | 600 nM | 990 nM | – | – | –
24 | Cc1cc(/C=C/C#N)cc(C)c1Oc1nc(Nc2ccc(N3CCS(=O)(=O)CC3)c(F)c2)ncc1-c1ccc(F)nc1 | 960 nM | > 221 | > 212000 nM | – | – | – | – | – | – | – | – | – | – | –
25 | O=C1Nc2ccc(Cl)cc2[C@@](C#CC2CC2)(C(F)(F)F)O1 [EFAVIRENZ] | 5.2 nM | – | > 6400 nM | – | – | – | 78 nM | 280 nM | 9.8 nM | – | 373 nM | – | – | –
26 | Cc1cc(C#N)cc(C)c1Oc1nc(Nc2ccc(C#N)cc2)nc(N)c1Br [ETRAVIRINE] | 3.8 nM | – | > 4600 nM | – | 9 nM | 6.5 nM | – | 23 nM | – | 8.5 nM | 52 nM | – | – | –
27 | Cc1ccnc2c1NC(=O)c1cccnc1N2C1CC1 [NEVIRAPINE] | – | – | > 15000 nM | – | 223 nM | 1760 nM | 5740 nM | > 1500 nM | 6590 nM | 10300 nM | > 15000 nM | – | – | –
